The values below are quoted from earlier work in paper PMC8730323 (The Journal of organic chemistry, 2021).

The test system of series [1] is NCL-H460 cell line. The conditions noted are these: read-out: IC50 against human lung cancer NCL-H460 cell line.
Series [2] relates to normal cells.
Series [3] relates to HL-60 cell line. The note with it: read-out: IC50 against HL-60 cell line; leukemia cells.

The term IC50 denotes the point on the concentration scale where inhibition reaches its midpoint. Consider (−)-diocollettines A [(−)-5], for which, in series [1], the IC50 was 20.2 µM. For the compound `Cc1c(O)cc(C[C@]23C[C@H](C[C@H](C)O2)c2c4c(c(O)c(C)c2O3)CO[C@@]2(C4)C[C@@H](O)C[C@H](C)O2)c(C=O)c1O` [(+)-1, (+)-peniciketal A], in series [2], the “Toxicity to normal cells compared with cancer cells (in words)” value is given as “less toxic”. Further, in series [3], the IC50 is 3.2 µM.
